Laboratory results as given in patent US20100267561A1, “HERBICIDAL PYRIDAZINONE DERIVATIVES” (priority 2007, published 2010).

Tests used:
Assay type in all cases: in vivo
[1] = system: barnyardgrass (Echinochloa crus-galli); experiment: Test A pre-/postemergence plant response
In short: (§1)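 Both pre- and postemergence treatment given concurrently; postemergence seedlings measured 2–10 cm at the one- to two-leaf stage. Visual injury, 0–100 scale versus untreated, at ~10 days.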

corn (Zea mays) = experiment: Test A pre-/postemergence plant response
In short: as §1

[2] = system: giant foxtail (Setaria faberi); experiment: Test A pre-/postemergence plant response
In short: as §1

[3] = system: large crabgrass (Digitaria sanguinalis); experiment: Test A pre-/postemergence plant response
In short: as §1

[4] = system: morningglory (Ipomoea coccinea); experiment: Test A pre-/postemergence plant response
In short: as §1

[5] = system: pigweed (Amaranthus retroflexus); experiment: Test A pre-/postemergence plant response
In short: as §1

[6] = system: velvetleaf (Abutilon theophrasti); experiment: Test A pre-/postemergence plant response
In short: as §1

[7] = system: wheat (Triticum aestivum); experiment: Test A pre-/postemergence plant response
In short: as §1

[8] = system: eastern black (E.B.) nightshade (Solanum ptycanthum); experiment: Test B pre-/postemergence plant response; details: Preemergence
In short: (§2)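 Preemergence and postemergence (plants 2-18 cm, 1- to 4-leaf stage) applications used test chemicals in a non-phytotoxic solvent with surfactant. Plants were held in a greenhouse 13 to 15 days, then rated visually against controls on a 0-100 scale (0 no effect, 100 complete control).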

[9] = system: green foxtail (Setaria viridis); experiment: Test B pre-/postemergence plant response
In short: as §2

[10] = system: barnyardgrass (Echinochloa crus-galli); experiment: Test B flooded paddy test plant response
In short: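 2-leaf plants; pots flooded 3 cm above soil; compound added to paddy water; depth maintained. Greenhouse 13–15 d. Visual rating vs controls, 0 (no effect) to 100 (complete control); dash = no result.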

[11] = Postemergence, 125 g ai/ha, 0 to 100 scale, 0 no effect, 100 complete control
[12] = Postemergence, 500 g ai/ha, 0 to 100 scale, 0 no effect, 100 complete control
[13] = Preemergence, 125 g ai/ha, 0 to 100 scale (0 no effect, 100 complete control)
[14] = Preemergence, 500 g ai/ha, 0 to 100 scale (0 no effect, 100 complete control)
[15] = Postemergence, 31 g ai/ha, scale 0 to 100, 0 no effect, 100 complete control
[16] = Postemergence, 62 g ai/ha, scale 0 to 100
[17] = Postemergence, 125 g ai/ha, scale 0 to 100
[18] = Postemergence, 250 g ai/ha, scale 0 to 100
[19] = Preemergence, 31 g ai/ha, 0 to 100 scale, 0 no effect, 100 complete control
[20] = Preemergence, 62 g ai/ha, scale 0 to 100
[21] = Preemergence, 125 g ai/ha, scale 0 to 100
[22] = Preemergence, 250 g ai/ha, scale 0 to 100
[23] = Flood (flooded paddy test), 62 g ai/ha, scale 0 to 100, 0 no effect, 100 complete control
[24] = Flood (flooded paddy test), 125 g ai/ha, scale 0 to 100, 0 no effect, 100 complete control
[25] = Flood (flooded paddy test), 250 g ai/ha, scale 0 to 100, 0 no effect, 100 complete control
[26] = Flood, 31 g ai/ha, scale 0 to 100

In the case of `Cc1cc(-c2ccc(Br)cc2)nn1-c1c(O)cnn(C)c1=O` [Compound 4], the “Plant response rating, Barnyardgrass” value [1, 11] is reported as 100, the “Plant response rating, Barnyardgrass” value [1, 12] is reported as 100 and the “Plant response rating, Barnyardgrass” value [1, 13] is reported as 100. The “Plant response rating, Barnyardgrass” value [1, 14] was 100, the “Plant response rating, Corn” value (corn (Zea mays); [11]) was 90 and the “Plant response rating, Corn” value (corn (Zea mays); [12]) was 100. The “Plant response rating, Corn” value (corn (Zea mays); [13]) was 70, the “Plant response rating, Corn” value (corn (Zea mays); [14]) was 90 and the “Plant response rating, Foxtail, Giant” value [2, 11] was 100. For the same compound, the “Plant response rating, Foxtail, Giant” value [2, 12] was 100, the “Plant response rating, Foxtail, Giant” value [2, 13] was 100 and the “Plant response rating, Foxtail, Giant” value [2, 14] was 100. For the same compound, the “Plant response rating, Crabgrass, Large” value [3, 11] was 100, the “Plant response rating, Crabgrass, Large” value [3, 12] was 100 and the “Plant response rating, Crabgrass, Large” value [3, 13] was 100. The “Plant response rating, Crabgrass, Large” value [3, 14] was 100, the “Plant response rating, Morningglory” value [4, 11] was 0 and the “Plant response rating, Morningglory” value [4, 12] was 20. For the same compound, the “Plant response rating, Morningglory” value [4, 13] was 0, the “Plant response rating, Morningglory” value [4, 14] was 0 and the “Plant response rating, Pigweed” value [5, 11] was 0. For the same compound, the “Plant response rating, Pigweed” value [5, 12] was 20, the “Plant response rating, Pigweed” value [5, 13] was 0 and the “Plant response rating, Pigweed” value [5, 14] was 0. The “Plant response rating, Velvetleaf” value [6, 11] was 20, the “Plant response rating, Velvetleaf” value [6, 12] was 60 and the “Plant response rating, Velvetleaf” value [6, 13] was 0. The “Plant response rating, Velvetleaf” value [6, 14] was 10, the “Plant response rating, Wheat” value [7, 11] was 60 and the “Plant response rating, Wheat” value [7, 12] was 80. For the same compound, the “Plant response rating, Wheat” value [7, 13] was 70, the “Plant response rating, Wheat” value [7, 14] was 100 and the “Plant response rating, Nightshade, E. B.” value ([8]; 250 g ai/ha, scale 0 to 100) was 80. The “Plant response rating, Foxtail, Green” value [9, 15] was 95, the “Plant response rating, Foxtail, Green” value [9, 16] was 100 and the “Plant response rating, Foxtail, Green” value [9, 17] was 100. The “Plant response rating, Foxtail, Green” value [9, 18] was 100, the “Plant response rating, Foxtail, Green” value [9, 19] was 100 and the “Plant response rating, Foxtail, Green” value [9, 20] was 100. The “Plant response rating, Foxtail, Green” value [9, 21] was 100, the “Plant response rating, Foxtail, Green” value [9, 22] was 100 and the “Plant response rating, Barnyardgrass” value [10, 23] was 60. The “Plant response rating, Barnyardgrass” value [10, 24] was 70, the “Plant response rating, Barnyardgrass” value [10, 25] was 75 and the “Plant response rating, Barnyardgrass” value [10, 26] was 0.
With `Cc1cc(-c2ccc(Br)cc2)nn1-c1c(OC(=O)OC(C)C)cnn(C)c1=O` [Compound 6] the “Plant response rating, Barnyardgrass” value [1, 11] was 90, the “Plant response rating, Barnyardgrass” value [1, 12] was 100 and the “Plant response rating, Barnyardgrass” value [1, 13] was 90. For the same compound, the “Plant response rating, Barnyardgrass” value [1, 14] was 100, the “Plant response rating, Corn” value (corn (Zea mays); [11]) was 100 and the “Plant response rating, Corn” value (corn (Zea mays); [12]) was 100. The “Plant response rating, Corn” value (corn (Zea mays); [13]) was 80, the “Plant response rating, Corn” value (corn (Zea mays); [14]) was 90 and the “Plant response rating, Foxtail, Giant” value [2, 11] was 90. The “Plant response rating, Foxtail, Giant” value [2, 12] was 90, the “Plant response rating, Foxtail, Giant” value [2, 13] was 100 and the “Plant response rating, Foxtail, Giant” value [2, 14] was 100. The “Plant response rating, Crabgrass, Large” value [3, 11] was 90, the “Plant response rating, Crabgrass, Large” value [3, 12] was 90 and the “Plant response rating, Crabgrass, Large” value [3, 13] was 100. The “Plant response rating, Crabgrass, Large” value [3, 14] was 100, the “Plant response rating, Morningglory” value [4, 11] was 30 and the “Plant response rating, Morningglory” value [4, 12] was 50. For the same compound, the “Plant response rating, Morningglory” value [4, 13] was 30, the “Plant response rating, Morningglory” value [4, 14] was 40 and the “Plant response rating, Pigweed” value [5, 11] was 0. For the same compound, the “Plant response rating, Pigweed” value [5, 12] was 30, the “Plant response rating, Pigweed” value [5, 13] was 20 and the “Plant response rating, Pigweed” value [5, 14] was 40. For the same compound, the “Plant response rating, Velvetleaf” value [6, 11] was 40, the “Plant response rating, Velvetleaf” value [6, 12] was 50 and the “Plant response rating, Velvetleaf” value [6, 13] was 40. The “Plant response rating, Velvetleaf” value [6, 14] was 50, the “Plant response rating, Wheat” value [7, 11] was 50 and the “Plant response rating, Wheat” value [7, 12] was 70. For the same compound, the “Plant response rating, Wheat” value [7, 13] was 80, the “Plant response rating, Wheat” value [7, 14] was 90 and the “Plant response rating, Nightshade, E. B.” value ([8]; 31 g ai/ha, 0 to 100 scale, 0 no effect, 100 complete control) was 0. The “Plant response rating, Nightshade, E. B.” value ([8]; 125 g ai/ha, scale 0 to 100) was 90, the “Plant response rating, Nightshade, E. B.” value ([8]; 250 g ai/ha, scale 0 to 100) was 90 and the “Plant response rating, Foxtail, Green” value [9, 15] was 100. The “Plant response rating, Foxtail, Green” value [9, 16] was 100, the “Plant response rating, Foxtail, Green” value [9, 17] was 100 and the “Plant response rating, Foxtail, Green” value [9, 18] was 100. The “Plant response rating, Foxtail, Green” value [9, 19] was 100, the “Plant response rating, Foxtail, Green” value [9, 20] was 100 and the “Plant response rating, Foxtail, Green” value [9, 21] was 100. For the same compound, the “Plant response rating, Foxtail, Green” value [9, 22] was 100, the “Plant response rating, Barnyardgrass” value [10, 23] was 40 and the “Plant response rating, Barnyardgrass” value [10, 24] was 80. For the same compound, the “Plant response rating, Barnyardgrass” value [10, 25] was 90 and the “Plant response rating, Barnyardgrass” value [10, 26] was 0.
